Reference: patent US11312719B2, “9-substituted amino triazolo quinazoline derivatives as adenosine receptor antagonists, pharmaceutical compositions and their use” (Merck Sharp & Dohme Corp., priority 2018, dated 2022)

How the values were obtained:
human A2A receptors = human A2A receptors (Homo sapiens (Human), UniProt P29274); assay: A2A antagonism in cAMP cell-based assay (LANCE cAMP, HEK293); details: HEK293 cells expressing human A2A receptor
Summary of the method: (§1)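 HEK293 cells expressing human A2A or A2B, in HBSS/5 mM HEPES/200 nM rolipram, were preincubated with compound (0.5–10,000 nM, 0.25% DMSO) 30 min at 37° C. Adenosine was then added from 300 nM (A2A) or 600 nM (A2B) solution for 30 min.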

human A2B receptors = human A2B receptors (Homo sapiens (Human), UniProt P29275); assay: A2B antagonism in cAMP cell-based assay (LANCE cAMP, HEK293); details: HEK293 cells expressing human A2B receptor
Summary of the method: as §1

Sequence of human A2B receptors (P29275 whole entry): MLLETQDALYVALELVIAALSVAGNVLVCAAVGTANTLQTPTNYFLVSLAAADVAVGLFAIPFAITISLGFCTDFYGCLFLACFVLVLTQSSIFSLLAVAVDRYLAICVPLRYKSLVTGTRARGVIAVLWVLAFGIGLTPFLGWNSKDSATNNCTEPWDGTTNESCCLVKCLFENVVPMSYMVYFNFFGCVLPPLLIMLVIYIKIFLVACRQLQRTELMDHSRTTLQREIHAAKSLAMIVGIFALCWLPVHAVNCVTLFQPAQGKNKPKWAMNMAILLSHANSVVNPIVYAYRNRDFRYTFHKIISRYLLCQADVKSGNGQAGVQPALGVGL
Sequence of human A2A receptors (P29274 whole entry): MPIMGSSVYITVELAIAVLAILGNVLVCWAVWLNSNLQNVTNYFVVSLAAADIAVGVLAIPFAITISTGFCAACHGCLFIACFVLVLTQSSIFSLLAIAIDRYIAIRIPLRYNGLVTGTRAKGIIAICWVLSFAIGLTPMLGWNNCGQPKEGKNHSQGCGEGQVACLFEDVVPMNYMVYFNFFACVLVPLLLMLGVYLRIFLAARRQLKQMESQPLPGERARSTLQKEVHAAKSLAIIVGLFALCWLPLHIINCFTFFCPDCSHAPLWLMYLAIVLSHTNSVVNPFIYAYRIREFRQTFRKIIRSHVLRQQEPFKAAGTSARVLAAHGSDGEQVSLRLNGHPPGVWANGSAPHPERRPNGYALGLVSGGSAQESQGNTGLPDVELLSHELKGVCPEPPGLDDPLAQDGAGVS

Row | Compound | IC50 (human A2A receptors) [µM] | IC50 (human A2B receptors) [µM]
1 | COc1cc(F)cc2c1nc(N)n1nc(C3CCC(C)N(c4cnn(C(C)(C)C(C)O)c4)C3)nc21 (single isomer, unassigned) [Example 268, (R or S)-3-(4-((2S,5R or 2R,5S)-5-(5-amino-9-fluoro-7-methoxy-[1,2,4]triazolo[1,5-c]quinazolin-2-yl)-2-methylpiperidin-1-yl)-1H-pyrazol-1-yl)-3-methylbutan-2-ol] | 0.0007 | 0.0047
2 | COc1cc(F)cc2c1nc(N)n1nc(C3CCC(C)N(c4cnn(C(C)(C)C(C)O)c4)C3)nc21 (single isomer, unassigned) [Example 269, (S or R)-3-(4-((2S,5R or 2R,5S)-5-(5-amino-9-fluoro-7-methoxy-[1,2,4]triazolo[1,5-c]quinazolin-2-yl)-2-methylpiperidin-1-yl)-1H-pyrazol-1-yl)-3-methylbutan-2-ol] | 0.0012 | 0.0064
3 | COc1cc(F)cc2c1nc(N)n1nc(C3CCC(C)N(c4cnn(C(C)(C)C(C)O)c4)C3)nc21 (single isomer, unassigned) [Example 270, (R or S)-3-(4-((2R,5S or 2S,5R)-5-(5-amino-9-fluoro-7-methoxy-[1,2,4]triazolo[1,5-c]quinazolin-2-yl)-2-methylpiperidin-1-yl)-1H-pyrazol-1-yl)-3-methylbutan-2-ol] | 0.0052 | 0.0303
4 | COc1cc(F)cc2c1nc(N)n1nc(C3CCC(C)N(c4cnn(C(C)(C)C(C)O)c4)C3)nc21 (single isomer, unassigned) [Example 271, (S or R)-3-(4-((2R,5S or 2S,5R)-5-(5-amino-9-fluoro-7-methoxy-[1,2,4]triazolo[1,5-c]quinazolin-2-yl)-2-methylpiperidin-1-yl)-1H-pyrazol-1-yl)-3-methylbutan-2-ol] | 0.0214 | 0.242
5 | COc1cc2nc(N)n3nc([C@@H]4CCCN(c5cnn(C(C)(C)CO)c5)C4)nc3c2cc1F [Example 151, (R)-2-(4-(3-(5-amino-9-fluoro-8-methoxy-[1,2,4]triazolo[1,5-c]quinazolin-2-yl)piperidin-1-yl)-1H-pyrazol-1-yl)-2-methylpropan-1-ol] | 0.0038 | 0.0569
6 | CC(C)(O)Cn1cc(N2CCC[C@@H](c3nc4c5cc(F)c(OC(F)F)cc5nc(N)n4n3)C2)cn1 [Example 153, (R)-1-(4-(3-(5-amino-8-(difluoromethoxy)-9-fluoro-[1,2,4]triazolo[l,5-c]quinazolin-2-yl)piperidin-l-yl)-1H-pyrazol-1-yl)-2-methylpropan-2-ol] | 0.0074 | 0.72
7 | (R or S)-1-(4-((2S,5R or 2R5S)-5-(5-amino-9-fluoro- 8-methoxy-[1,2,4]triazolo[1,5-c]quinazolin-2-yl)-2- methylpiperidin-1-yl)-1H-pyrazol-1-yl)propan-2-ol [Example 240] | 0.0012 | 0.0226
8 | (S or R)-1-(4-((2S,5R or 2R5S)-5-(5-amino-9-fluoro- 8-methoxy-[1,2,4]triazolo[1,5-c]quinazolin-2-yl)-2- methylpiperidin-1-yl)-1H-pyrazol-1-yl)propan-2-ol [Example 241] | 0.0013 | 0.0217

The next lines start with the values.

Row | IC50 (human A2A receptors) [µM] | IC50 (human A2B receptors) [µM] | Compound
9 | 0.0642 | 0.58 | COc1cc2nc(N)n3nc(C4CCC(C)N(c5cnn(C(C)(C)C(C)O)c5)C4)nc3c2cc1F (single isomer, unassigned) [Example 266, (R or S)-3-(4-((2R,5S or 2S,5R)-5-(5-amino-9-fluoro-8-methoxy-[1,2,4]triazolo[1,5-c]quinazolin-2-yl)-2-methylpiperidin-1-yl)-1H-pyrazol-1-yl)-3-methylbutan-2-ol]
10 | 0.175 | 1.21 | COc1cc2nc(N)n3nc(C4CCC(C)N(c5cnn(C(C)(C)C(C)O)c5)C4)nc3c2cc1F (single isomer, unassigned) [Example 267, (S or R)-3-(4-((2R,5S or 2S,5R)-5-(5-amino-9-fluoro-8-methoxy-[1,2,4]triazolo[1,5-c]quinazolin-2-yl)-2-methylpiperidin-1-yl)-1H-pyrazol-1-yl)-3-methylbutan-2-ol]
11 | 0.0436 | 5.8 | COc1cc2nc(N)n3nc(C4CCC(C)N(c5cnn(CC6(O)CC6)c5)C4)nc3c2cc1F (single isomer, unassigned) [Example 272, 1-((4-((2S,5R or 2R,5S)-5-(5-amino-9-fluoro-8-methoxy-[1,2,4]triazolo[1,5-c]quinazolin-2-yl)-2-methylpiperidin-1-yl)-1H-pyrazol-1-yl)methyl)cyclopropan-1-ol]
12 | 0.0012 | 0.0267 | COc1cc2nc(N)n3nc(C4CCC(C)N(c5cnn(CC6(O)CC6)c5)C4)nc3c2cc1F (single isomer, unassigned) [Example 273, 1-((4-((2R,5S or 2S,5R)-5-(5-amino-9-fluoro-8-methoxy-[1,2,4]triazolo[1,5-c]quinazolin-2-yl)-2-methylpiperidin-1-yl)-1H-pyrazol-1-yl)methyl)cyclopropan-1-ol]
13 | 0.0007 | 0.0705 | COc1cc2nc(N)n3nc(C4CC(C)CN(c5cnn(CC(C)(C)O)c5C)C4)nc3c2cc1F (single isomer, unassigned) [Example 274, 1-((4-((3R,5S or 3S,5R)-5-(5-amino-9-fluoro-8-methoxy-[1,2,4]triazolo[1,5-c]quinazolin-2-yl)-5-methylpiperidin-1-yl)-5-methyl-1H-pyrazol-1-yl)-2-methylpropan-2-ol]
14 | 0.0156 | 2.47 | COc1cc2nc(N)n3nc(C4CC(C)CN(c5cnn(CC(C)(C)O)c5C)C4)nc3c2cc1F (single isomer, unassigned) [Example 275, 1-((4-((3S,5R or 3R,5S)-5-(5-amino-9-fluoro-8-methoxy-[1,2,4]triazolo[1,5-c]quinazolin-2-yl)-5-methylpiperidin-1-yl)-5-methyl-1H-pyrazol-1-yl)-2-methylpropan-2-ol]
15 | 0.0059 | 0.371 | COc1cc2nc(N)n3nc([C@@H]4CCCN(c5cnn(CCC(C)(C)O)c5)C4)nc3c2cc1F [Example 152, (R)-4-(4-(3-(5-amino-9-fluoro-8-methoxy-[1,2,4]triazolo[1,5-c]quinazolin-2-yl)piperidin-1-yl)-1H-pyrazol-1-yl)-2-methylbutan-2-ol]
16 | 0.0012 | 0.974 | Cc1nn(CC(C)(C)O)cc1N1CCC[C@@H](c2nc3c4cc(F)c(OC(F)F)cc4nc(N)n3n2)C1 [Example 154, (R)-1-(4-(3-(5-amino-8-(difluoromethoxy)-9-fluoro-[1,2,4]triazolo[l,5-c]quinazolin-2-yl)piperidin-l-yl)-3-methyl-1H-pyrazol-1-yl)-2-methylpropan-2-ol]
